Test results taken from a compilation of properties of binary mixtures (doi:10.1016/j.molliq.2015.08.019).

Assay: xn = mol fraction of the nth substance listed
Conditions: 100 kPa

CN1CCCC1=O + CCCC[n+]1ccn(C)c1.F[B-](F)(F)F
x1 = 1
Conditions	speed of sound [m/s]
298.15 K	1543.8
303.15 K	1524.3
308.15 K	1505
313.15 K	1485.7
318.15 K	1466.7

CCCC[n+]1ccn(C)c1.F[B-](F)(F)F + CN1CCCC1=O
speed of sound [m/s]
Conditions	x2 = 0.108	x2 = 0.2114	x2 = 0.3061	x2 = 0.4422	x2 = 0.5097	x2 = 0.6155	x2 = 0.7054	x2 = 0.8025	x2 = 0.9025
298.15 K	–	–	–	1562.8	1562	1561.2	–	1559.1	1554.8
303.15 K	1552.4	1552.2	1551.5	1549.9	1548.1	–	1544.1	–	1536.3
308.15 K	–	1539.8	–	1536.6	1534.6	1531.5	–	1524.7	1518
313.15 K	1528.3	–	–	1522.7	1520.8	–	–	1507	–
318.15 K	1516.4	–	1512.8	1510.1	1506.8	1501.7	1496.4	1490.4	1482.5
323.15 K	–	1502.8	1499.9	1496.7	1492.4	1486.5	1480.7	1473.2	1464.1
